This experiment has as its target Endoplasmic reticulum chaperone BiP (Homo sapiens, UniProt P11021). The experiment can be described thus: Inhibition of 2-deoxyglucose-induced GRP78 (unknown origin) expression transfected in human HT1080 cells by luciferase reporter gene assay.

Sequence of Endoplasmic reticulum chaperone BiP (P11021 whole entry): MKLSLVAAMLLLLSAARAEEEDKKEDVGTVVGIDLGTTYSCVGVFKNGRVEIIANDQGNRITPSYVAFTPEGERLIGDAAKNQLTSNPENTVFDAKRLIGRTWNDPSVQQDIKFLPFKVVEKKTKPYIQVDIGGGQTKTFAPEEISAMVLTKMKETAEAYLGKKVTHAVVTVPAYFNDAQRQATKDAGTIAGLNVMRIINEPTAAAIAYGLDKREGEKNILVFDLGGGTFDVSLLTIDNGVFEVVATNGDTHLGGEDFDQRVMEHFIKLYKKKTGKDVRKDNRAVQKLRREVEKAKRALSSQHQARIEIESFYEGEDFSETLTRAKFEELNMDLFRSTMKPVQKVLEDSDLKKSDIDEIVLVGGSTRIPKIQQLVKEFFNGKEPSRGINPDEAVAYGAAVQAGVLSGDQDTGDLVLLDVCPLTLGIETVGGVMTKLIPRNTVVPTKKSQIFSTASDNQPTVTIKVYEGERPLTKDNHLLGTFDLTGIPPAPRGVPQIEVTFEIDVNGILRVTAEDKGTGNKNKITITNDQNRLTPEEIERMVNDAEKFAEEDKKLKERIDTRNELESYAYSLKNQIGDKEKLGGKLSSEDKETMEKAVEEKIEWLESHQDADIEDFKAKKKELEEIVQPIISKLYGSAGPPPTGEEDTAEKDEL

Compound `CC/C1=C/[C@H](CO)C[C@@H](C)[C@H](O[C@H]2C[C@H](O)[C@H](O[C@@H]3O[C@@H](C)[C@H](O[C@H]4C[C@H](O)[C@H](O)[C@@H](C)O4)[C@@H](OC)[C@H]3O)[C@@H](C)O2)[C@H](C)CCC[C@]2(C)C=C(C)[C@H](C)C[C@]23OC(=O)C(=C3O)C(=O)[C@@]2(CC)[C@H]3[C@H](C=C(C)[C@@H]12)[C@@H](O)CC(=O)[C@@H]3C` registered an IC50 of 300 nM. That is a sub-micromolar value.

Source of the values: BindingDB's records for doi:10.1021/np500757w (University of California San Diego, 2015).
